± gives the expanded uncertainty stated by the source.
What was measured:
[1] = Crystal; DTA
[2] = Molar enthalpy of transition or fusion; details: Crystal; DSC

## CC(C)C1=CC2=CC[C@@H]3[C@](C)(CCC[C@@]3(C)C(=O)O)[C@H]2CC1 [abietic acid]
[1]
  Normal melting temperature: 177.74 ± 0.41 °C
[2]
  Molar enthalpy of transition or fusion: 4.65 ± 0.136 kcal/mol
